pIC50: −log10 of the molar value. Where two headings read alike, the source gives them in different places.
Key:
AHR [1] = biological target: T1, AHR (Homo sapiens, UniProt P35869); test: In vitro assay 1: antagonism in human cell line (AHR transactivation, firefly luciferase reporter, kynurenic acid prestimulated); assay type: cell-based; details: AHR Antagonism Human IC50 [M]
T1 construct: U87 MG glioblastoma cells (ATCC #HTB-14) endogenously expressing AHR; endogenous in cells; host or cells: U87 MG glioblastoma cells (ATCC #HTB-14)
T1 sequence (P35869 11-848): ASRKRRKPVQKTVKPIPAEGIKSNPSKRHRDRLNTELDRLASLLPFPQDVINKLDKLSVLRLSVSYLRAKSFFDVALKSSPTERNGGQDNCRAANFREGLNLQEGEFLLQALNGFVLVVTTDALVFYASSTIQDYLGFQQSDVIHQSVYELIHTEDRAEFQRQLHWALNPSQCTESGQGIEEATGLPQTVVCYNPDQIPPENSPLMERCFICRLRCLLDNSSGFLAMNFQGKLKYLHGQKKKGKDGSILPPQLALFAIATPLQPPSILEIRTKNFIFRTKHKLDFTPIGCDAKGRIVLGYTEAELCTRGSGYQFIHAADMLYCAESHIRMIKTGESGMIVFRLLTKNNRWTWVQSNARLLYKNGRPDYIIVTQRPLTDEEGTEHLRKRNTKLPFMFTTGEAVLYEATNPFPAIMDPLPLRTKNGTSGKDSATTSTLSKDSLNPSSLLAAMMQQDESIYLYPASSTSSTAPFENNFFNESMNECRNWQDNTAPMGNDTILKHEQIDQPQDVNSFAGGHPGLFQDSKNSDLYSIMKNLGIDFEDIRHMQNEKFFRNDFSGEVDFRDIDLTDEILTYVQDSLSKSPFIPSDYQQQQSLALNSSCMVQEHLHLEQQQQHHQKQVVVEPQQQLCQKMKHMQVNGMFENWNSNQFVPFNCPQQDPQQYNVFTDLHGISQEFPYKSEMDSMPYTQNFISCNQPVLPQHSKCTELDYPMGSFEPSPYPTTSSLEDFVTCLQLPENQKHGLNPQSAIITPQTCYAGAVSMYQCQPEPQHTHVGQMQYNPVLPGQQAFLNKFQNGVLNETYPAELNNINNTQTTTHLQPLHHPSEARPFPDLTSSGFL
Method in brief: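 Antagonism measured as loss of kynurenic acid-driven firefly luciferase from DRE reporter in stably transfected U87 MG cells; constitutive Renilla signal monitors cytotoxicity. Positive/negative control normalization, staurosporine 5 μM with 150 μM kynurenic acid as inhibition control; replicates given as mean or median.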

AHR [2] = biological target: T2, AHR (Mus musculus, UniProt P30561); test: In vitro assay 3: antagonism in mouse cell line (AHR transactivation, firefly luciferase reporter, kynurenic acid prestimulated); assay type: cell-based; details: 200 μM kynurenic acid, 20 hours, read-out: AHR Antagonism Mouse IC50
T2 sequence (P30561 1-848 P471L/N533S/M589L): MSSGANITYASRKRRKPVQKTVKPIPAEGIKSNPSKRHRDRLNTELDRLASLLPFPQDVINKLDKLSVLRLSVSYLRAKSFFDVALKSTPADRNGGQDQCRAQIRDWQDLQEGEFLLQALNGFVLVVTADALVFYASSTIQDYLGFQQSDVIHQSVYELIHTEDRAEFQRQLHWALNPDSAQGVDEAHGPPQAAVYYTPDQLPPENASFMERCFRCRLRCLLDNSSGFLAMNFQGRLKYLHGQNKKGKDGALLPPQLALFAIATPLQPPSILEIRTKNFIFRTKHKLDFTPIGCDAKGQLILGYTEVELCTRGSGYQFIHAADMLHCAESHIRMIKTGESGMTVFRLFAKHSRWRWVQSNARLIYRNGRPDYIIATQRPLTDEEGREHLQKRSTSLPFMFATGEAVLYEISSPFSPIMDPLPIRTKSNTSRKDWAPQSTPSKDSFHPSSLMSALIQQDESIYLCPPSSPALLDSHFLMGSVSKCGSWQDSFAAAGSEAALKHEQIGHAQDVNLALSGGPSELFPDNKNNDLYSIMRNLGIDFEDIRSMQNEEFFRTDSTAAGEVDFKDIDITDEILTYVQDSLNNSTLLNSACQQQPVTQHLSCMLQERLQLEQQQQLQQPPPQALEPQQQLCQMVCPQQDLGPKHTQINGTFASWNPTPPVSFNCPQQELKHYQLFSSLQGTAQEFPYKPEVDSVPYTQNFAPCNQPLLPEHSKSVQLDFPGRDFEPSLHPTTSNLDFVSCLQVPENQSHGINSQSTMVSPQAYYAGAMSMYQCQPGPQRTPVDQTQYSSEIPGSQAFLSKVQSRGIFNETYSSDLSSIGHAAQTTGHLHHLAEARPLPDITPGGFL
Method in brief: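 Antagonism read as reduced firefly luciferase signal (SteadyGlo) from a stably transfected AHR/DRE reporter in a mouse line prestimulated with kynurenic acid. Data normalized to controls, the full-inhibition control being cells without kynurenic acid; multiple determinations given as average or median values.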

[3] = Hepa 1c1c7 cells, firefly luciferase reporter

Compound | IC50 (AHR [1]) [M] | pIC50 (AHR [2]; mouse Hepa 1c1c7 cells) | IC50 (AHR [1]; firefly luciferase reporter) [M] | pIC50 (AHR [2]; [3])
C[C@@H](Nc1nc2ccccc2c2nc(-c3cc(Cl)ccc3OC(F)(F)F)nn12)C(=O)NCCN(C)C [Example 775, N^2-{2-[5-chloro-2-(trifluoromethoxy)phenyl][1,2,4]triazolo[1,5-c]quinazolin-5-yl}-N-[2-(dimethylamino)ethyl]-D-alaninamide] | 3.13e-06 | 6.13 | – | –
CCOC(=O)[C@@H](C)Nc1nc2c(Br)cccc2c2nc(-c3ccc(OC)cc3)nn12 [Example 865, ethyl N-[7-bromo-2-(4-methoxyphenyl)[1,2,4]triazolo[1,5-c]quinazolin-5-yl]-D-alaninate] | – | – | 4.02e-09 | 7.93
CC[C@@H](Nc1nc2ccccc2c2nc(-c3cccnc3C(F)(F)F)nn12)C(N)=O [Example 489, (2R)-2-({2-[2-(trifluoromethyl)pyridin-3-yl][1,2,4]triazolo[1,5-c]quinazolin-5-yl}amino)butanamide] | 4.24e-07 | 7.36 | – | –
COc1ccc(-c2nc3c4cccc(Br)c4nc(N[C@H](C)C(=O)NCCN4CCCCC4)n3n2)cc1 [Example 895, N^2-[7-bromo-2-(4-methoxyphenyl)[1,2,4]triazolo[1,5-c]quinazolin-5-yl]-N-[2-(piperidin-1-yl)ethyl]-D-alaninamide] | – | – | 1.18e-08 | 7.76
C[C@@H](Nc1nc2c(C(F)(F)F)cccc2c2nc(-c3cnn(C)c3)nn12)C(=O)N1CCC(N(C)C)C1 (mixture of isomers) [Example 876, (2R)-1-[(3R/S)-3-(dimethylamino)pyrrolidin-1-yl]-2-{[2-(1-methyl-1H-pyrazol-4-yl)-7-(trifluoromethyl)[1,2,4]triazolo[1,5-c]quinazolin-5-yl]amino}propan-1-one] | – | – | 5.39e-08 | 6.96
CC[C@@H](Nc1nc2ccccc2c2nc(-c3cc(F)ccc3OC(F)(F)F)nn12)C(N)=O [Example 496, (2R)-2-({2-[5-fluoro-2-(trifluoromethoxy)phenyl][1,2,4]triazolo[1,5-c]quinazolin-5-yl}amino)butanamide] | 4.66e-08 | 8.72 | – | –
C[C@H]1CN(C(=O)[C@@H](C)Nc2nc3c(Br)cccc3c3nc(-c4cnn(C)c4)nn23)CCO1 [Example 908, (2R)-2-{[7-bromo-2-(1-methyl-1H-pyrazol-4-yl)[1,2,4]triazolo[1,5-c]quinazolin-5-yl]amino}-1-[(2S)-2-methylmorpholin-4-yl]propan-1-one] | – | – | 2.87e-08 | 7.73
CCn1cc(-c2nc3c4cccc(Br)c4nc(N[C@@H]4CNCCNC4=O)n3n2)c(C)n1 [Example 974] | – | – | 8.12e-10 | 8.73
CCNC(=O)C(CC)Nc1nc2ccccc2c2nc(-c3cccc(OC(F)(F)F)c3)nn12 (single isomer, unassigned) [Example 319, N-ethyl-2-({2-[3-(trifluoromethoxy)phenyl][1,2,4]triazolo[1,5-c]quinazolin-5-yl}amino)butanamide] | 1.74e-08 | 9.30 | – | –
CC[C@H](Nc1nc2c(Br)cccc2c2nc(-c3ccc(C#N)cc3)nn12)C(N)=O [Example 564, (2S)-2-{[7-bromo-2-(4-cyanophenyl)[1,2,4]triazolo[1,5-c]quinazolin-5-yl]amino}butanamide] | 1.23e-08 | 7.76 | – | –

More lines, now with the values ahead:

IC50 (AHR [1]) [M] | pIC50 (AHR [2]; mouse Hepa 1c1c7 cells) | IC50 (AHR [1]; firefly luciferase reporter) [M] | pIC50 (AHR [2]; [3]) | Compound
1.8e-09 | 8.66 | – | – | COc1ccc(-c2nc3c4ccccc4nc(N[C@H](C)C(=O)N4CCN(C)CC4)n3n2)cc1 [Example 777, (2R)-2-{[2-(4-methoxyphenyl)[1,2,4]triazolo[1,5-c]quinazolin-5-yl]amino}-1-(4-methylpiperazin-1-yl)propan-1-one]
– | – | 5.36e-08 | 6.43 | COc1ccc(-c2nc3c4cccc(C5CC5)c4nc(N[C@H]4CNCCNC4=O)n3n2)cc1 [Example 959, (6S)-6-{[7-cyclopropyl-2-(4-methoxyphenyl)[1,2,4]triazolo[1,5-c]quinazolin-5-yl]amino}-1,4-diazepan-5-one]
1.52e-07 | 6.37 | – | – | COc1cccc(-c2nc3c4ccccc4nc(N[C@H](CC(C)C)C(=O)O)n3n2)c1 [Example 93, N-[2-(3-methoxyphenyl)[1,2,4]triazolo[1,5-c]quinazolin-5-yl]-D-leucine]
2e-08 | 8.17 | – | – | O=C1NCCC[C@H]1Nc1nc2c(Br)cccc2c2nc(-c3ccccc3OC(F)(F)F)nn12 [Example 220, (3R)-3-({7-bromo-2-[2-(trifluoromethoxy)phenyl][1,2,4]triazolo[1,5-c]quinazolin-5-yl}amino)piperidin-2-one]
– | – | 7.05e-09 | 6.83 | COc1ccc(-c2nc3c4cccc(S(C)(=N)=O)c4nc(N[C@@H]4CCCCNC4=O)n3n2)cc1 (single isomer, unassigned) [Example 854]
– | – | 9.02e-09 | 8.03 | O=C1NCCNC[C@H]1Nc1nc2c(Cl)cccc2c2nc(-c3cnn(C4CC4)c3)nn12 [Example 966, (6R)-6-{[7-chloro-2-(1-cyclopropyl-1H-pyrazol-4-yl)[1,2,4]triazolo[1,5-c]quinazolin-5-yl]amino}-1,4-diazepan-5-one]
> 2e-05 | 6.23 | – | – | O=C1NCC[C@H]1Nc1nc2ccccc2c2nc(-c3cc(C(F)(F)F)ccn3)nn12 [Example 366, (3R)-3-({2-[4-(trifluoromethyl)pyridin-2-yl][1,2,4]triazolo[1,5-c]quinazolin-5-yl}amino)pyrrolidin-2-one]
1.45e-08 | 7.88 | – | – | COc1ccc(-c2nc3c4cccc(Br)c4nc(N[C@H]4COCCNC4=O)n3n2)cc1 [Example 681, (6S)-6-{[7-bromo-2-(4-methoxyphenyl)[1,2,4]triazolo[1,5-c]quinazolin-5-yl]amino}-1,4-oxazepan-5-one]
5.17e-10 | 9.18 | – | – | CSc1ccc(-c2nc3c4ccccc4nc(N[C@@H]4CCCCNC4=O)n3n2)cc1 [Example 202, (3R)-3-({2-[4-(methylsulfanyl)phenyl][1,2,4]triazolo[1,5-c]quinazolin-5-yl}amino)azepan-2-one]
1.64e-09 | 9.19 | – | – | COc1ccc(-c2nc3c4ccccc4nc(NC4CCCCCNC4=O)n3n2)cc1 (centres unmarked) [Example 433, 3-{[2-(4-methoxyphenyl)[1,2,4]triazolo[1,5-c]quinazolin-5-yl]amino}azocan-2-one]
8.4e-09 | 8.37 | – | – | COc1ccc(-c2nc3c4cccc(Br)c4nc(N[C@@H]4CCCCNC4=O)n3n2)c(C(F)(F)F)c1 [Example 569, (3R)-3-({7-bromo-2-[4-methoxy-2-(trifluoromethyl)phenyl][1,2,4]triazolo[1,5-c]quinazolin-5-yl}amino)azepan-2-one]
4.85e-07 | 6.55 | – | – | COc1cccc(-c2nc3c4ccccc4nc(NC4(C(N)=O)COC4)n3n2)c1 [Example 87, 3-{[2-(3-methoxyphenyl)[1,2,4]triazolo[1,5-c]quinazolin-5-yl]amino}oxetane-3-carboxamide]

From patent publication US20230113037A1 (Bayer Aktiengesellschaft, priority 2019, published 2023)
